The term pIC50 denotes the IC50 on a negative log10 scale, so that one unit is a factor of ten. Low values mean a large IC50, high ones a small IC50.

Each structure is given as a SMILES string. pIC50: −log10 of the molar value.

The assay deals with PIK3CA (human) (UniProt P42336). Kind of assay: Assessment of PIK3CA Kinase Activity.
PIK3CA (human), sequence (P42336 whole entry, looked up): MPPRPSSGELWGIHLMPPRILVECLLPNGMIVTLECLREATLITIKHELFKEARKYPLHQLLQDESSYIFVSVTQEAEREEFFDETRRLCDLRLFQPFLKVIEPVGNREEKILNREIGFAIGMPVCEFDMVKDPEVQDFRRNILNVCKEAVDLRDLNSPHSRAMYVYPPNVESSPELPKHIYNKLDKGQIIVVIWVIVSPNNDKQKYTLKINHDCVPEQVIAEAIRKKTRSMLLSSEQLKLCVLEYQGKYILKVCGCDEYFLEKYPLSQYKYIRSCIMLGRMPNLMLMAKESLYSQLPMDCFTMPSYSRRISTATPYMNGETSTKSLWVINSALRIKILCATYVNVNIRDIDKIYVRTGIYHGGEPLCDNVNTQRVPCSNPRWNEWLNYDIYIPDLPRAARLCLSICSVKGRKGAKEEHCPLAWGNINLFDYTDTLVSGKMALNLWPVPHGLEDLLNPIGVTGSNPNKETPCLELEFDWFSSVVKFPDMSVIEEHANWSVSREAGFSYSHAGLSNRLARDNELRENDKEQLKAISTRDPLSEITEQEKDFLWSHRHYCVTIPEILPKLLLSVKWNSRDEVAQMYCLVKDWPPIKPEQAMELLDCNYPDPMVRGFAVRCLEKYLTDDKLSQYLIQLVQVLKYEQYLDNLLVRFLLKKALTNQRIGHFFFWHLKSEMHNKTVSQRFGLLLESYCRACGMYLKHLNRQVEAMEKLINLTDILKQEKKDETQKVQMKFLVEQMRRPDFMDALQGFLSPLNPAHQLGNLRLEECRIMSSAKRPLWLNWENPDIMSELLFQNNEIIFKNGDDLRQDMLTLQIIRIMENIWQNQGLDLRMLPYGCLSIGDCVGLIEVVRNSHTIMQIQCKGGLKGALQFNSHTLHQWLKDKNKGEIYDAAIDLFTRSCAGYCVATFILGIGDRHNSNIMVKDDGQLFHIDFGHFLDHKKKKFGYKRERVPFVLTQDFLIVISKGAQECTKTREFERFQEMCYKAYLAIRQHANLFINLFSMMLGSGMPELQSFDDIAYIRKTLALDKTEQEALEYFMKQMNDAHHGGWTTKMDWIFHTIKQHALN
`CC(C)(CO)NC(=O)c1ccc2c(c1)-c1nc(-c3ncnn3C3CCS(=O)(=O)C3)cn1CCO2` (centres undefined) gave a pIC50 greater than 6.00.

`CC(C)C(Oc1cc2c(cn1)-c1nc(-c3ncnn3C(C)C)cn1CCO2)C(N)=O` (centres undefined) had a negative-log IC50 (pIC50) greater than 6.00.

In turn, `NC(=O)CNc1cc2c(cn1)-c1nc(-c3ncnn3CC(F)(F)F)cn1CCO2` showed a negative-log IC50 (pIC50) greater than 6.00. Under `CC(C)n1nc(CO)nc1-c1cn2c(n1)-c1cnc(N3CC(F)(F)C3)cc1OCC2` stands greater than 6.00; under `Cc1nc(-c2cn3c(n2)-c2ccc(-c4cccnc4)cc2OCC3)n(C(C)C)n1`, greater than 6.00. In the case of `Cc1nc(-c2cn3c(n2)-c2cc(F)c(F)cc2OCC3)n(C(C)C)n1`, the pIC50 was greater than 6.00. `CC(C)n1ncnc1-c1cn2c(n1)-c1cc(N3CCN(C)CC3)ncc1OCC2`: the negative-log IC50 (pIC50) is greater than 6.00. As to `CC(C)n1nccc1-c1cn2c(n1)-c1cc(C(N)=O)ccc1OCC2`, the pIC50 was greater than 6.00. As for `OCCN1CCC(c2ccc3c(c2)-n2nc(-c4ncnn4CC(F)(F)F)cc2CCO3)CC1`, the negative logarithm of the IC50 (pIC50) was greater than 6.00. Under `CC(C)n1ncnc1-c1cn2c(n1)-c1ccc(N3CCCCC3C(N)=O)cc1OCC2` (centres undefined) stands greater than 6.00.

In the case of `CC(C)(CO)NC(=O)c1ccc2c(c1)-c1nc(-c3ncnn3-c3ccccc3Cl)cn1CCO2`, the pIC50 was greater than 6.00. `CC(C)n1ncnc1-c1cn2c(n1)-c1cnc(OC(C)(C)C(N)=O)cc1OCC2` showed a pIC50 greater than 6.00.

Take `CC(C)n1ncnc1-c1cn2c(n1)-c1cnc(N3CC[C@@H](O)[C@H]3C(N)=O)cc1OCC2`: the pIC50 was greater than 6.00. `CC(C)n1nc(N)nc1-c1cn2c(n1)-c1ccc(-c3cnn(CC(C)(C)O)c3)cc1OCC2`: the negative logarithm of the IC50 (pIC50) was greater than 6.00. To `CCc1ccccc1-c1ccc2c(c1)OCCn1cc(-c3ncnn3C(C)C)nc1-2` belongs greater than 6.00; to `CC(C)n1ncnc1-c1cn2c(n1)-c1ccc(O[C@@H](CCO)C(N)=O)cc1OCC2`, greater than 6.00; to `COCc1nc(-c2cn3c(n2)-c2ccc(C4CCN(CC(N)=O)CC4)cc2OCC3)n(C(C)C)n1`, greater than 6.00. `Nc1nc(-c2cn3c(n2)-c2cc(-c4cncnc4)ccc2OCC3)n(-c2ccccc2Cl)n1` showed a pIC50 greater than 6.00. Under `CC(C)n1ncnc1-c1cn2c(n1)-c1ccc([C@H]3C[C@H]4CC[C@@H](C3)N4CC(N)=O)cc1OCC2` stands greater than 6.00; under `Cc1nc(-c2cn3c(n2)-c2ccc(C4CCN(CC(=O)NC(C)C)CC4)cc2OCC3)n(C(C)C)n1`, greater than 6.00.

Consider `Cc1nc(-c2cn3c(n2)-c2cnc(NCC(N)=O)cc2OCC3)n(C(C)C)n1`, for which the negative-log IC50 (pIC50) was greater than 6.00. With `Cc1nc(-c2cn3c(n2)-c2ccc(-c4cnn(CC(C)C(N)=O)c4)cc2OCC3)n(C(C)C)n1` (centres undefined), the pIC50 was greater than 6.00.

Take `CC(C)n1nc(CN(C)C)nc1-c1cn2c(n1)-c1ccccc1OCC2`: the pIC50 is greater than 6.00. To `Cc1nc(-c2cn3c(n2)-c2cc(-c4ccc(=O)[nH]c4)ccc2OCC3)n(C(C)C)n1` belongs greater than 6.00; to `COCCN1CCC(c2ccc3c(c2)OCCn2cc(-c4ncnn4C(C)C)nc2-3)CC1`, greater than 6.00; to `CC(C)NC(=O)CN1CCN(c2cc3c(cn2)-c2nc(-c4ncnn4C(C)C)cn2CCO3)CC1`, greater than 6.00. Under `CC(C)n1ncnc1-c1cn2c(n1)-c1ccc(-c3ccccc3CO)cc1OCC2` stands greater than 6.00. To `CC(C)n1ncnc1-c1cn2c(n1)-c1ccc(N[C@@H](C)C(N)=O)cc1OCC2` belongs greater than 6.00; to `Cc1nc(-c2cn3c(n2)-c2ccc(-c4cnn(CCN5CCOCC5)c4)cc2OCC3)n(C(C)C)n1`, greater than 6.00. `CC(C)n1ncnc1-c1cn2c(n1)-c1cnc(N3CC(O)C3)cc1OCC2` gave a pIC50 greater than 6.00.

Turning to `CC(C)n1ncnc1-n1cc2c(n1)-c1ccc(C3CN(CC(N)=O)C3)cc1OCC2`, the negative-log IC50 (pIC50) is greater than 6.00. Compound `CC(C)(O)CN1CC(c2ccc3c(c2)OCCc2cn(-c4ncnn4-c4ccc(F)cc4F)nc2-3)C1` had a pIC50 greater than 6.00. `CC(C)n1ncnc1-c1cc2n(n1)-c1cc(CN3CCN(C(=O)CO)CC3)ccc1OCC2` had a pIC50 greater than 6.00. Under `CC(C)n1ncnc1-c1cn2c(n1)-c1cnc(Cl)cc1OCC2` stands greater than 6.00.

These data come from the Kinase Knowledgebase extract (Sharma et al. 2016).
